Test results taken from US6858638B2, “Substituted indazoles, compositions containing them, method of production and use” (Aventis Pharma S.A., priority 2002, dated 2005).

Experiments:
Format in all cases: biochemical
human FAK = target: T1, human FAK (Homo sapiens, UniProt Q05397); experiment: FAK autophosphorylation inhibition, time resolved fluorescence (HTRF) assay; conditions: 10 μM (values without asterisk); for inhibition at 10 µM: read-out: FAK % inhib at 10 μM
T1 construct: The complete cDNA of human FAK; made in house; host or cells: baculovirus expression system (vector pFastBac HTc)
T1 sequence (Q05397 whole entry): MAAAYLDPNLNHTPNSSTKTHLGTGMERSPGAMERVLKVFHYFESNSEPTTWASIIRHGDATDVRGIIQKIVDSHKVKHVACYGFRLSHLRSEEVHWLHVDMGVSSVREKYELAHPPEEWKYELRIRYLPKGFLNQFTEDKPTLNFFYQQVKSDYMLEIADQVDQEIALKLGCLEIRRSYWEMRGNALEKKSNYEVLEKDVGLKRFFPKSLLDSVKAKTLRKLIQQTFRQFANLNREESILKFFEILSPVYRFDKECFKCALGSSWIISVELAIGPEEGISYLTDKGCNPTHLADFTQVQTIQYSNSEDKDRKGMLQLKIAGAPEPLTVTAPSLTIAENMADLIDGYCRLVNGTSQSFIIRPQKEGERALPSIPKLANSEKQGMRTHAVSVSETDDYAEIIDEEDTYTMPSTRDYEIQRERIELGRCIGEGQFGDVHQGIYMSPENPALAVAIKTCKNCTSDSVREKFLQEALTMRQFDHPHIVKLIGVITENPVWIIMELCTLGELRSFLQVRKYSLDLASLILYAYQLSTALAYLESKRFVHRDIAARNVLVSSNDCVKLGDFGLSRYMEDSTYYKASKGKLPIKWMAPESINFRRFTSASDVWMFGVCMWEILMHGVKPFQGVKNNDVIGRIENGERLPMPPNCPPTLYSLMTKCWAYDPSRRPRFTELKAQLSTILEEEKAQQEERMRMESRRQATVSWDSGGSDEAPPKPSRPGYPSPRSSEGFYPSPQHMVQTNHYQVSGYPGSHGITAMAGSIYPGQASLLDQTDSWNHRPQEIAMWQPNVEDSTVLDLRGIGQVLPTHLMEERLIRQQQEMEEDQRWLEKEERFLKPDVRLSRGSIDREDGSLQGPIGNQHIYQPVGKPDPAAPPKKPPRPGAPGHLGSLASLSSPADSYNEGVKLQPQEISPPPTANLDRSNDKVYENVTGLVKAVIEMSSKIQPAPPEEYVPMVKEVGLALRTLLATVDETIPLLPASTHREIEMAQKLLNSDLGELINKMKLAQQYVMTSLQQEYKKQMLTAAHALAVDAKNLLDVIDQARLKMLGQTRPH
Method: The inhibitory activity of the compounds on FAK is determined by measuring the inhibition of the autophosphorylation of the enzyme using a time resolved fluorescence (HTRF) assay.
The complete cDNA of human FAK, the N-terminal end of which was labeled with histidine, was cloned into a baculovirus expression vector pFastBac HTc. The protein was expressed and purified to approximately 70% homogeneity.
The kinase activity is determined by incubating the enzyme (6.6 μg/ml) with various concentrations of test compound in a 50 mM Hepes buffer, pH=7.2, containing 10 mM MgCl2, 100 μM Na3VO4 and 15 μM d'ATP for 1 hour at 37° C. The enzyme reaction is stopped by adding Hepes buffer, pH=7.0, containing […], 133 mM EDTA and 0.1% BSA, and the labeling is carried out, over 1 to 2 hours at ambient temperature, by adding to this buffer an anti-Histidine antibody labeled with XL665 and a monoclonal antibody phosphospecific for tyrosine, conjugated to europium cryptate (Eu-K). The characteristics of the two fluorophores are available in G. Mathis et al., Anticancer Research, 1997, 17, pages 3011-3014. The transfer of energy from the excited europium cryptate to the XL665 acceptor is proportional to the degree of autophosphorylation of FAK. The long-lived signal specific for XL-665 is measured in a Packard Discovery plate counter. All the assays are carried out in duplicate and the mean of the two assays is calculated. The inhibition of the FAK autophosphorylation activity with compounds of the invention is expressed as percentage inhibition compared to a control whose activity is measured in the absence of test compound. The [signal at 665 nm/signal at 620 nm] ratio is used for the calculation of the % inhibition.

human KDR enzyme = target: T2, human KDR enzyme (Homo sapiens, UniProt P35968); experiment: KDR substrate (PLCγ) phosphorylation, scintillation assay; conditions: 10 μM; for inhibition at 10 µM: read-out: KDR % inhib at 10 μM
T2 construct: The cytoplasmic domain of the human KDR enzyme; GST; made in house; host or cells: SF21 insect cells (baculovirus)
T2 sequence (P35968 786-1356 limits assumed): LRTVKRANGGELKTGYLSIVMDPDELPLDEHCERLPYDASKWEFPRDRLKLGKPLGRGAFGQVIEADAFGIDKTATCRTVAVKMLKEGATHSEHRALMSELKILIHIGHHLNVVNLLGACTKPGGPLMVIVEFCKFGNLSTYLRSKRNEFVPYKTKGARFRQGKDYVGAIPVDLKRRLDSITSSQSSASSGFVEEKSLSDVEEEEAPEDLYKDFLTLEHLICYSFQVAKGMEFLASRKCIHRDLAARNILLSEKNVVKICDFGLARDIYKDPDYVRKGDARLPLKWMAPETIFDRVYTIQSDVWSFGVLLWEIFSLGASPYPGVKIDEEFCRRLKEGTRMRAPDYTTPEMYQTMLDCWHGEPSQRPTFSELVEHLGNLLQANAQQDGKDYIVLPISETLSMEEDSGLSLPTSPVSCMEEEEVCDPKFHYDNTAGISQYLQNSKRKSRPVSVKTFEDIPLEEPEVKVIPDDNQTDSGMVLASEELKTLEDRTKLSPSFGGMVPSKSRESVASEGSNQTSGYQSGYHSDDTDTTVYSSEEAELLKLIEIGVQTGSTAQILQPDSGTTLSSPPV
Method: The inhibitory effect of the compounds is determined in an assay of substrate phosphorylation by the KDR enzyme in vitro using a scintillation technique (96-well plate, NEN).
The cytoplasmic domain of the human KDR enzyme was cloned in the form of a GST fusion into the baculovirus expression vector pFastBac. The protein was expressed in SF21 cells and purified to approximately 60% homogeneity.
The KDR kinase activity is measured in 20 mM MOPS, 10 mM MgCl2, 10 mM MnCl2, 1 mM DTT, 2.5 mM EGTA, 10 mM β-glycerophosphate, pH=7.2, in the presence of 10 mM MgCl2, 100 μM Na3VO4, 1 mM NaF. 10 μl of the compound are added to 70 μl of kinase buffer containing 100 ng of KDR enzyme at 4° C. The reaction is triggered by adding 20 μl of solution containing 2 μg of substrate (SH2-SH3 fragment of PLCγ expressed in the form of a GST fusion protein), 2 μCi γ^33P[ATP] and 2 μM cold ATP. After incubation for 1 hour at 37° C., the reaction is stopped by adding 1 volume (100 μl) of 200 mM EDTA. The incubation buffer is removed and the wells are washed three times with 300 μl of PBS. The radioactivity is measured in each well using Top Count NXT radioactivity counter (Packard).
The background noise is determined by measuring the radioactivity in four different wells containing the radioactive ATP and the substrate alone.
A control for total activity is measured in four different wells containing all the reagents (γ^33P-[ATP], KDR and PLCγ substrate) but in the absence of compound.
The inhibition of the KDR activity with the compound of the invention is expressed as percentage inhibition of the control activity determined in the absence of compound.
The compound SU5614 (Calbiochem) (1 μM) is included in each plate as an inhibition control.

Aurora2 kinase = target: T3, Aurora2 kinase (Homo sapiens, UniProt O14965); experiment: Aurora2 kinase radioactivity scintillation assay using nickel chelate (NuMA substrate); conditions: 10 μM; for inhibition at 10 µM: read-out: Aurora2 % inhib at 10 μM
T3 construct: A complete recombinant Aurora2 enzyme; His tag (N); made in house; host or cells: E. coli
T3 sequence (O14965 1-403): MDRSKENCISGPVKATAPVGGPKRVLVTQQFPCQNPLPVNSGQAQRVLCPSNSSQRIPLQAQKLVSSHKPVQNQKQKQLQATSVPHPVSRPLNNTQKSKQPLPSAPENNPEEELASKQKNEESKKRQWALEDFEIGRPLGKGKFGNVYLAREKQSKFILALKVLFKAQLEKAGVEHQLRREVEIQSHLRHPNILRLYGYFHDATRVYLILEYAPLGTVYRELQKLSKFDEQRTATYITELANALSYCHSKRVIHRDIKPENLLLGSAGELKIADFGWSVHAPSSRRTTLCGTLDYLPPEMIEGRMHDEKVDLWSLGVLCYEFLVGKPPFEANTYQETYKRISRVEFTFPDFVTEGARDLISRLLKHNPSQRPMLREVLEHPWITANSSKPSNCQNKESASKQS
Method: The inhibitory effect of compounds with respect to the Aurora2 kinase is determined with a radioactivity scintillation assay using nickel chelate.
A complete recombinant Aurora2 enzyme, the N-terminal end of which was labeled with histidine, was expressed in E. coli and purified to a quality close to homogeneity.
The C-terminal fragment (Q1687-H2101) of a NuMA (Nuclear protein that associates with the Mitotic Apparatus) expressed in E. coli, and the N-terminal end of which was labeled with histidine, was purified by nickel chelate chromatography and used as substrate in the Aurora2 kinase assay. In order to determine the kinase activity, the NuMA substrate is equilibrated by chromatography on a Pharmacia PD10 column, in a buffer (50 mM Tris HCl, pH7.5, 50 mM NaCl, 10 mM MgCl2) to which 10% (v/v) of glycerol and 0.05% (w/v) of NP40 have been added.
The kinase acivitity of Aurora2 is measured by scintillation with nickel chelate (New England Nuclear, model SMP107). Each well contains 100 μl of the following solution: 0.02 μM of Aurora2; 0.5 μM of NuMA substrate; 1 μM of ATP to which 0.5 μCi of ATP-[^33P] has been added. The solutions are incubated for 30 minutes at 37° C. The assay buffer is then removed and the wells are rinsed twice with 300 μl of kinase buffer. The radioactivity is measured in each well using a Packard Model Top Count NXT device.
The background noise is deduced from the measurement of radioactivity by measuring, in duplicate, in wells containing the radioactive ATP alone containing buffered kinase treated in the same way as the other samples.
The activity of the control is determined by measuring, in duplicate, the radioactivity in the complete assay mixture (ATP, Aurora2 and the NuMA substrate) in the absence of test compound.
The inhibition of the Aurora2 with a compound of the invention is expressed as percentage inhibition of the control activity in the absence of test compound. Staurosporine is added to each plate as an inhibition control.

[1] = target: T4, human IGF1R cytoplasmic domain (Homo sapiens, UniProt P08069); experiment: IGF1R autophosphorylation inhibition, time resolved fluorescence (HTRF) assay; conditions: 10 μM; for inhibition at 10 µM: read-out: IGF1R % inhib at 10 μM
T4 construct: The human IGF1R cytoplasmic domain was cloned; made in house; host or cells: SF21 insect cells (baculovirus)
T4 sequence (P08069 960-1367 limits assumed): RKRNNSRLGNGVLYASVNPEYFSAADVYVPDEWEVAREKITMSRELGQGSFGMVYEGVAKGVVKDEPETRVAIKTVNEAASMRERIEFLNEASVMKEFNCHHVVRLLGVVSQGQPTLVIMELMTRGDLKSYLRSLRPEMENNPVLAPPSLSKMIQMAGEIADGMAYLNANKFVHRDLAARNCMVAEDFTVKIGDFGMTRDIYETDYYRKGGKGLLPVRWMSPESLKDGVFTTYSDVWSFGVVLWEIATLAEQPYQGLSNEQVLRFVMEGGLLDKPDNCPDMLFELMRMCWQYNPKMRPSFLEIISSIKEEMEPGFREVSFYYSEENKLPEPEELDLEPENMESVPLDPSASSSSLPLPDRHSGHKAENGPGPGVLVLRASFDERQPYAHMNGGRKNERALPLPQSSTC
Method: The inhibitory activity of the compounds on IGF1R is determined by measuring the inhibition of the autophosphorylation of the enzyme using a time resolved fluorescence (HTRF) assay.
The human IGF1R cytoplasmic domain was cloned, as a fusion with glutathione S-transferase (GST), into the baculovirus expression vector pFastBac-GST. The protein was expressed in SF21 cells and purified to approximately 80% homogeneity.
The kinase activity was determined by incubating the enzyme with various concentrations of test compound in a 50 mM Hepes buffer, pH 7.5, containing 5 mM MnCl2, 50 mM NaCl, 3% glycerol, 0.025% Tween […] of ATP. The enzyme reaction is stopped by adding 100 mM Hepes buffer, pH 7.0, containing 0.4 M KF, 133 mM EDTA and 0.1% BSA containing an anti-GST antibody labeled with XL665 and an antiphosphotyrosine antibody conjugated to europium cryptate (Eu-K). The characteristics of the two fluorophores, XL-665 and Eu-K, are available in G. Mathis et al., Anticancer Research, 1997, 17, pages 3011-3014. The transfer of energy from the excited europium cryptate to the acceptor XL665 is proportional to the degree of autophosphorylation of IGF1R. The long-lived signal specific for XL-665 is measured in a Victor analyzer plate counter (Perkin-elmer). The inhibition of the IGF1R autophosphorylation activity with compounds of the invention is expressed as percentage inhibition compared to a control whose activity is measured in the absence of test compound.

| FAK % inhib at 10 μM (human FAK) | KDR % inhib at 10 μM (human KDR enzyme) | Aurora2 % inhib at 10 μM (Aurora2 kinase) | IGF1R % inhib at 10 μM [1] | inhibition at 10 µM (human FAK) | inhibition at 10 µM (human KDR enzyme) | inhibition at 10 µM (Aurora2 kinase) | inhibition at 10 µM [1] | SMILES |
| --- | --- | --- | --- | --- | --- | --- | --- | --- |
| 97% | 80% | 94% | 94% | – | – | – | – | CS(=O)(=O)c1ccccc1S(=O)(=O)Nc1ccc2[nH]nc(-c3ccc(O)cc3)c2c1 [Example 35, N-[3-(4-Hydroxyphenyl)-1H-indazol-5-yl]-2-methylsulfonylbenzenesulfonamide] |
| – | – | – | – | 76% | 56% | 88% | 65% | CCc1ccc(-c2n[nH]c3ccc(NS(=O)(=O)c4ccccc4S(C)(=O)=O)cc23)cc1 [Example 193, N-[3-(4-Ethylphenyl)-1H-indazol-5-yl]-2-methanesulfonyl-benzenesulfonamide] |
| – | – | – | – | 98% | 66% | 98% | 76% | COc1ccc(-c2n[nH]c3ccc(NS(=O)(=O)c4ccccc4S(C)(=O)=O)cc23)cc1OC [Example 198, 2-Methanesulfonyl-N-[3-(3,4-dimethoxyphenyl)-1H-indazol-5-yl]benzenesulfonamide] |
| – | – | – | – | 70% | 20% | 62% | 31% | CCOc1ccccc1-c1n[nH]c2ccc(NS(=O)(=O)c3ccccc3S(C)(=O)=O)cc12 [Example 189, N-[3-(2-Ethoxyphenyl)-1H-indazol-5-yl]-2-methanesulfonyl-benzenesulfonamide] |
| – | – | – | – | 40% | 85% | 100% | 74% | O=S(=O)(Nc1ccc2[nH]nc(-c3ccccc3)c2c1)c1ccccc1OC(F)(F)F [Example 142, N-(3-Phenyl-1H-indazol-5-yl)-2-trifluoromethoxy-benzenesulfonamide] |
| – | – | – | – | 96% | 88% | 95% | 75% | CS(=O)(=O)c1ccc(-c2n[nH]c3ccc(NS(=O)(=O)c4ccccc4S(C)(=O)=O)cc23)cc1 [Example 220, 2-Methanesulfonyl-N-[3-(4-methanesulfonylphenyl)-1H-indazol-5-yl]-benzenesulfonamide] |
| – | – | – | – | 95% | 44% | 90% | 67% | COc1cccc(-c2n[nH]c3ccc(NS(=O)(=O)c4ccccc4S(C)(=O)=O)cc23)c1 [Example 178, 2-Methanesulfonyl-N-[3-(3-methoxyphenyl)-1H-indazol-5-yl]benzenesulfonamide] |
| – | – | – | – | 8% | 72% | 44% | 78% | O=S(=O)(Nc1ccc2[nH]nc(-c3ccccc3)c2c1)c1ccc2ccccc2c1 [Example 108, N-(3-Phenyl-1H-indazol-5-yl)-naphthalene-2-sulfonamide] |
| – | – | – | – | 96% | 32% | 91% | 86% | CS(=O)(=O)c1ccccc1S(=O)(=O)Nc1ccc2[nH]nc(-c3ccc(C#N)cc3)c2c1 [Example 216, N-[3-(4-Cyanophenyl)-1H-indazol-5-yl]-2-methanesulfonyl-benzenesulfonamide] |
| – | – | – | – | 36% | 61% | 77% | 30% | CC1(C)[C@H]2CCC1(CS(=O)(=O)Nc1ccc3[nH]nc(-c4ccccc4)c3c1)C(=O)C2 [Example 148, C-(7,7-Dimethyl-2-oxo-bicyclo[2.2.1]hept-1-yl)-N-(3-phenyl-1H-indazol-5-yl)-methanesulfonamide] |
| – | – | – | – | 95% | 37% | – | 82% | CC(=O)Nc1n[nH]c2ccc(NS(=O)(=O)c3cc(F)cc(F)c3)cc12 [Example 44, N-[5-(3,5-Difluorobenzenesulfonylamino)-1H-indazol-3-yl]acetamide] |
